One assay concerns human aSyn 3′UTR. The assay is described as follows: Firefly luciferase-aSyn 3′UTR reporter assay in SH-SY5Y cells. Type of assay: cell-based. The settings on record: for luciferase expression, Firefly/Renilla ratio, 1.1 kb human aSyn 3′UTR vector: 100 μM for 24 h. The method, then: The human SH-SY5Y neuroblastoma cell line (ATCC) was cultured following the distributor's instructions. Cells were plated at a density of 4×10^5 cells per well (in 48-well plates) in wells coated with 0.1% gelatin (Specialty Media, Millipore) 24 hours prior to transfection. Transfections were performed with Lipofectamine 2000 reagent (Invitrogen) following the manufacturer's instructions. The human HEK-293T cell line (ATCC) was cultured in DMEM (Invitrogen) supplemented with 10% FBS (Invitrogen). Cells were plated at a density of 8×10^3 cells per well (96-well plates). Mir-34b-3p precursor, specific Anti-miR Mir-34b-3p inhibitor, Anti-miR Negative Control #1, and Pre-miR Negative Control #1 were purchased from Ambion. Cells were co-transfected with luciferase reporter plasmids and a small RNA or inhibitor (as indicated) using siPort NeoFx reagent (Ambion) following manufacturer's protocol. Luciferase and Renilla activities were measured 24 h or 48 h after transfection using Dual-Glo luciferase assay system (Promega).

Assay [1] relates to aSynL:total ratio. The assay is described as follows: aSynL:total ratio by RT-qPCR in rat primary cortical cultures. Type of assay: cell-based. The settings on record: for aSynL:total ratio: rat primary cortical neurons, RT-qPCR, dopamine, picrotoxin, muscimol, NMDA 100 μM, kainic acid 50 μM, vs vehicle; for dopamine-mediated potentiation of the aSynL:total ratio: nomifensine 100 μM with dopamine 100 μM for 24 h. The method, then: (§1) Cultures of rodent neurons were prepared as described in ^53. Cells were maintained in vitro for 3-5 days before drug treatments or transfection using Lipofectamine 2000 (Iinvitrogen) following manufacturer's instructions.
RT-qPCR analyses were performed as described ^60. The human aSynL:Total mRNA ratio was quantified in terms of AACt ^60 using primer pair Lh for the human long form (HaSynLfw [[…]] SEQ ID NO: 13, and HaSynLry [[…]]) SEQ ID NO: 14 and primer pair Th for human total (HaSynTfw [[…]] SEQ ID NO: 15 and HaSynTrv [[…]] SEQ ID NO: 16). For analysis of either mouse or rat, primer pairs mrL (RaSynLfw [[…]] SEQ ID NO: 17 and RaSynLrv [[…]] SEQ ID NO: 18) and mrT (RaSynTfw [[…]] SEQ ID NO: 19, RaSynTry [[…]] SEQ ID NO: 20) were used.

In another assay the test system is aSynL/total ratio. In words: aSynL/total ratio in SK-N-MC cells treated with chronic low-dose rotenone (reanalysis of GEO GSE4773). Type of assay: cell-based, human. The settings on record: one or two weeks vs vehicle.
The subject of assay [2] is aSynL:total ratio. The assay is described as follows: In situ hybridization for aSyn CDS and long 3′UTR in primary cortical neuron cultures from aSyn PAC transgenic mice. Type of assay: cell-based. The settings on record: 100 μM for 24 h, DIV 4 PAC mouse cortical neurons. The procedure: as §1
In situ hybridization were performed using QuantiGene® ViewRNA ISH Cell Assay (Panomics) following manufacturer's instructions, with QG ViewRNA TYPE 8 Probe Sets (Panomics) designed to target either human aSyn CDS sequences (bases 264-634 from NM_000345.3; Panomics) or to target human aSynL 3′UTR sequences (bases 1180-1760 from NM_000345.3).

Assay [3] deals with aSyn protein. In words: Total endogenous aSyn protein by ELISA in SH-SY5Y cells. Type of assay: cell-based, human. The settings on record: 100 μM for 48 h. The method, then:
(§2) Mitochondria were purified using Qproteome Mitochondria Isolation Kit (Qiagen) and membrane fractions were isolated using Subcellular Protein Fractionation Kit (Pierce) following manufacturers' instructions. Human aSyn protein levels were determined using the aSyn Human ELISA kit (Invitrogen). Absorbance was read on a VersaMax ELISA Microplate Reader (Molecular Devices, Inc) at 450 nm. The amount of human aSyn was normalized to total cellular protein as determined with the DC Protein Assay Reagent kit (Bio-Rad). Mitochondrial preparations were validated by Western blot analysis for Tom20 and synaptophysin (see FIG. 12d).
(ELISA stands for enzyme-linked immunosorbent assay.)

Assay [4] deals with aSyn protein. In words: Colocalization of aSyn and Mitotracker in primary cortical neuron cultures from PAC transgenic mice. Type of assay: cell-based. The settings on record: primary mouse cortical neurons, 100 μM for 24 h. The method, then:
as §1
Immunostainings were done as previously described ^59 with Rabbit anti-aSyn (Santa Cruz, 1:200) or Mouse anti-Synaptophysin (Millipore, 1:100) as primary antibodies, and Alexa 555 goat anti-rabbit IgG or Alexa 633 goat anti-mouse IgG (Invitrogen) secondary antibodies. MitoTracker-Orange (Invitrogen, 1:10000) was added into media for 15-20 min in living cell culture. Collocalization analyses were done in R using EBImage package; using Pearson's correlation coefficient.

For assay [5], the system named is aSyn protein. In words: aSyn protein by ELISA in mitochondrial and membrane fractions of SH-SY5Y cells. Type of assay: cell-based, human. The settings on record: 100 μM for 48 h. The procedure:
as §2

The test system of the next assay is human aSyn protein. The assay is described as follows: In vivo I-Dopa treatment of aSyn PAC transgenic mice, aSyn protein in brain tissue by ELISA. Details: species or system mouse. The settings on record: 20 mg/kg i.p. daily for 5 days. The procedure:
as §2
(§3) 2-month old DAT-Cre/Dicer^flox/flox and DAT-Cre/Dicer^flox/+24 or forty-weeks old male PAC-Tg (SNCA)+/−;Snca+/− (a gift from Dr. Robert L. Nussbaum, University of California San Francisco, ^25) received 20 mg/kg I-Dopa with 12 mg/kg benserazide (or PBS vehicle only) by intraperitoneal injection daily for 5 days. […] 1 hour after the last dose, mice were anesthetized by inhaled isoflurane and the brains rapidly removed. The prefrontal cortex, striatum and midbrain were dissected out and stored at −80° C.

Assay [6] has as its system aSynL:total ratio. In words: In vivo I-Dopa treatment of DAT-Cre/Dicer mice, aSynL:total ratio in brain tissue by RT-qPCR. Details: species or system mouse. The procedure: as §3
RT-qPCR analyses were performed as described ^60.
Background: In qPCR the cycle at which signal appears reflects the starting amount.

The subject of assay [7] is aSynL:total ratio. In words: aSynL:total ratio in total RNA of SH-SY5Y cells by RT-qPCR (transcription inhibition). Type of assay: cell-based, human. The settings on record: actinomycin D 10 μg/mL with dopamine 100 μM, total RNA, 12 or 24 h.

Entries after “also recorded” stand apart in the source; their conditions may differ. *1 amine or outer side, *2 acyl side, *3 side chain or, on linkers, in order; H or OH if unused. Where a SMILES comes first, the peptide text is derived from it. Bridges are numbered along the chain shown (N, C = ends). Roman numbers before positions name the chains, in order. [ ]: non-standard residue; d: D form. Actinocin(9to1) = Cc1c2oc3c(C)ccc(C(=O)[*:1])c3nc-2c(C(=O)[*:2])c(N)c1=O; NMeV = CN[C@H](C(=O)O)C(C)C; Sar = CNCC(=O)O

This is an account of results in patent publication US20140323581A1, “TRANSCRIPTOME WIRING ANALYSIS IN PARKINSON'S DISEASE AND USES THEREOF” (THE TRUSTEES OF COLUMBIA UNIVERSITY IN THE CITY OF NEW YORK, priority 2011, published 2014).

`NCc1cc(=O)[nH]o1` [muscimol]: in the assay with human aSyn 3′UTR (SH-SY5Y), the “luciferase expression, Firefly/Renilla ratio, 1.1 kb human aSyn 3′UTR vector” value is listed as “decreased”. Besides, the “aSynL:total ratio” value in the assay on aSynL:total ratio [1] was “alter”.
In the case of `C=C(C)[C@H]1CN[C@H](C(=O)O)[C@H]1CC(=O)O` [kainic acid], the “aSynL:total ratio” value in the assay with aSynL:total ratio [1] is “did not appear to impact”.
Consider `C=C(C)[C@H]1Cc2c(ccc3c2O[C@@H]2COc4cc(OC)c(OC)cc4[C@@H]2C3=O)O1` [rotenone], for which the “aSynL/total ratio (Affymetrix probesets 204467_s_at and 211546_x_at)” value is recorded as “predictably modify; also recorded: increased” in the assay on aSynL/total ratio and “Mitochondrial toxin increases aSynL: total ratio” in the assay with aSynL/total ratio (listed as Rotenone).
Consider `CN1CCCC1c1cccnc1` (stereo not drawn) [nicotine], for which the “expression of an aSynL-3′UTR bearing reporter gene (Firefly/Renilla)” value with human aSyn 3′UTR (nicotine 100 μM, with or without dopamine 100 μM, 24 h) is listed as “decreases”.
Consider `CN[C@H](CC(=O)O)C(=O)O` [NMDA], for which, in the assay on aSynL:total ratio [1], the “aSynL:total ratio” value was “did not appear to impact”.
picrotoxin: in the assay on human aSyn 3′UTR (SH-SY5Y), the “luciferase expression, Firefly/Renilla ratio, 1.1 kb human aSyn 3′UTR vector” value is “increased”. Besides, the “luciferase expression, Firefly/Renilla ratio, short aSyn 3′UTR vector” value in the assay with human aSyn 3′UTR (SH-SY5Y, 100 μM for 24 hrs) is reported as “do not influence”. Also, in the assay on aSynL:total ratio [2], the “aSynL:total ratio (ratio of in situ hybridization signals)” value is listed as “increase”. The “endogenous aSyn protein levels (ELISA, normalized to total protein)” value in the assay with aSyn protein [3] is listed as “significantly increased”. Also, the “aSynL:total ratio” value in the assay with aSynL:total ratio [1] is “significantly increased; also recorded: alter”. In addition, the “fraction of aSyn protein that colocalized with mitochondria (Mitotracker)” value with aSyn protein [4] was “significantly increased”. In the assay on aSyn protein [5], the “aSyn content within total cell membrane fraction relative to whole cell lysate (ELISA)” value was “decreased; also recorded: reduction” and the “aSyn protein content in mitochondrial preparations relative to whole cell aSyn content (ELISA)” value is “increased proportion; also recorded: preferentially increased”.
Regarding `N[C@@H](Cc1ccc(O)c(O)c1)C(=O)O` [I-Dopa], in the assay with human aSyn protein, the “human aSyn protein in midbrain (ELISA, normalized to total protein)” value is on record as “significantly increased” and the “human aSyn protein in other brain regions such as striatum or cortex” value is reported as “not”. In addition, in the assay with aSynL:total ratio [6] (2 month-old control DAT-Cre/Dicer flox/+ mice, 20 mg/kg i.p. daily for 5 days with 12 mg/kg benserazide), the “aSynL:total ratio in midbrain tissue” value is reported as “significantly increased”. Also, the “aSynL:total ratio in midbrain tissue” value in the assay on aSynL:total ratio [6] (DAT-Cre/Dicer flox/flox mice deficient in mDNs, 20 mg/kg i.p. daily for 5 days) is “did not alter”. Also, in the assay with aSynL:total ratio [6] (such as striatal tissue, 20 mg/kg i.p. daily for 5 days), the “aSynL:total ratio in brain regions other than midbrain” value is on record as “not apparent”.
On to `Cc1c2oc3c(C)ccc(C(=O)N[C@@H]4C(=O)N[C@H](C(C)C)C(=O)N5CCC[C@H]5C(=O)N(C)CC(=O)N(C)[C@@H](C(C)C)C(=O)O[C@@H]4C)c3nc-2c(C(=O)N[C@@H]2C(=O)N[C@H](C(C)C)C(=O)N3CCC[C@H]3C(=O)N(C)CC(=O)N(C)[C@@H](C(C)C)C(=O)O[C@@H]2C)c(N)c1=O` [actinomycin D] (I: T[dV]P[Sar][NMeV] / II: T[dV]P[Sar][NMeV]; ester I:1-I:C, II:1-II:C; linker I:N-II:N via Actinocin(9to1)), for which the “dopamine-mediated increase in aSynL:total ratio” value with aSynL:total ratio [7] is on record as “prevented the increase”.
As for `CN1Cc2c(N)cccc2C(c2ccccc2)C1` (stereo not drawn) [nomifensine], the “dopamine-increased luciferase accumulation, luciferase-aSyn 3′UTR vector” value with human aSyn 3′UTR (SH-SY5Y, dopamine 100 μM with nomifensine 100 μM, 24 h) is recorded as “suppressed”. In addition, the “dopamine-mediated potentiation of the aSynL:total ratio” value in the assay on aSynL:total ratio [1] is “suppressed sensitivity”; in the assay with aSynL:total ratio [1] (listed as Nomifensine), “suppresses”.
